Measurements as given in US20090221581A1, “Methods of treating pain” (priority 2005, published 2009).

Legend:
CDK4/CycD1 = biological target: T1, CDK4/CycD1 (Homo sapiens, UniProt P11802); experiment: In vitro kinase inhibition assay, CDK4/CycD1; assay type: biochemical
T1 construct: host or cells: Sf9 insect cells, baculovirus
Experimental: In vitro kinase inhibition assays may be performed according to the following protocol:
Compounds are used as 1×10^−02 M stock solutions in 100% DMSO, 100 μl each in column 2 of three 96-well V-shaped microtiter plates (in the following, said plates are referred to as “master plates”).
Subsequently, the 1×10^−02 M stock solutions in column 2 of the master plates are subjected to a serial, semi-logarithmic dilution using 100% DMSO as a solvent, resulting in 10 different concentrations, the dilution endpoint being 3×10^−07 M/100% DMSO in column 12. Column 1 and 7 are filled with 100% DMSO as controls. […]
For the determination of inhibitory profiles, the following protein kinases were used: CDK2/CycA, CDK4/CycD1, CDK6/CycD1 and CDK9/CycT. […] The purity of each kinase is determined by SDS-PAGE/silver staining and the identity of each kinase is verified by western blot analysis with kinase specific antibodies or by mass spectroscopy. […]
Reaction mixtures are incubated at 30° C. for 80 minutes. […] Incorporation of ^33P is determined with a microplate scintillation counter (Microbeta, Wallac). […]
The median value of the counts in column 1 (n=8) of each assay plate is defined as “low control”. This value reflects unspecific binding of radioactivity to the plate in the absence of a protein kinase but in the presence of the substrate. […]

carrageenan-treated mice = experiment: Carrageenan assay, paw edema; assay type: in vivo; details: 30 mg/kg i.p. 30 min prior to carrageenan
Description: The model of carrageenan-induced paw edema constitutes a standard laboratory assay used to predict anti-inflammatory activity of therapeutically active compounds and reduction of inflammation-induced pain perception achieved by administration of therapeutically active compounds.
The basic measurement constitutes in the measurement of edema size and of mechanical as well as thermal hypersensitivity in response to irritants, such as carrageenan.
Inflammation and subsequent inflammatory pain is induced by subcutaneous injection of 25 μl of 1% carrageenan (in saline) into the hind paw (ipsi-lateral paw) of mice. Groups of 10 mice each received compound A, 30 mg/kg body weight, vehicle (DMA/Labrafil; 10:90) and saline (physiol. NaCl) by i.p. injection 30 min prior to carrageenan injection.
Paw edema induced by carrageenan injection was detected by increased paw size measured from dorsal to plantar at the metatarsus region of the injected (ipsi-lateral) paws. Sizes of ipsi- and contra-lateral paws (see FIG. 6, paw size [mm]) served as surrogate markers for inflammation and were measured at several time points after carrageenan injection: 1 h before injection (−1), immediately after injection, 1 h (1), 2 h (2), 4 h (4), 5 h (5), 6 h (6), 7 h (7), 24 h (24), 48 h (48), 72 h (72), 96 h (96), and 98 h (98) after injection. […]

[1] = system: TNFα expression in microglial cell line (EOC20); experiment: TNFα expression in microglial cells, Real-Time PCR; assay type: cell-based, human
Experimental: In order to validate the hypothesis that TNFα stimulation is regulated by an autocrine loop (i.e., TNFα induces expression of TNFα; see FIG. 2), a microglial cell line (EOC20) […] was stimulated in vitro by addition of TNFα (20 ng/ml).
1 hour prior to addition of TNFα, stimulated or unstimulated cells, respectively, were treated with DMSO (vehicle control), or 0.5 μM and 0.05 μM, respectively, of compound A. Cells were harvested 48 h after addition of TNFα. RNA was isolated from the samples and the amount of amplicon of TNFα (and of other cytokines) and of several housekeeping genes was measured by light cycler-based Real-Time PCR.

T1 sequence (P11802 whole entry): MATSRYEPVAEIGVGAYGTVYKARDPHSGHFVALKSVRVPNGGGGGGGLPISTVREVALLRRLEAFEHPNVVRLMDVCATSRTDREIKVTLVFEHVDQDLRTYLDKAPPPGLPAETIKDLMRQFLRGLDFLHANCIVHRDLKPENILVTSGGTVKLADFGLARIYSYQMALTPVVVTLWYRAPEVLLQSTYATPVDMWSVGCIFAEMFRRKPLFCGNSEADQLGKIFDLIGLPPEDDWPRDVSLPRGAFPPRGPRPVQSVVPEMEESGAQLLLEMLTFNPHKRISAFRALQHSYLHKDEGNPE
T1 sequence (P24385 whole entry partner): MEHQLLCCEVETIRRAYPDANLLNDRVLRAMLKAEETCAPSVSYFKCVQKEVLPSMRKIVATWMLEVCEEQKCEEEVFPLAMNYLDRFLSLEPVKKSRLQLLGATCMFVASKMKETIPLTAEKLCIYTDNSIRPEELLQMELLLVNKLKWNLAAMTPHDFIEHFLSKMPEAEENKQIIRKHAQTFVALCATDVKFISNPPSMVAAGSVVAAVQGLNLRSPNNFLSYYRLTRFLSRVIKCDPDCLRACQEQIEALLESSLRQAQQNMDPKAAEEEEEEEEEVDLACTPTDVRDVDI

In the case of `COc1ccccc1-c1cc(Nc2cccc(S(N)(=O)=O)c2)ncn1` [Compound A], the IC50 (CDK4/CycD1) is reported as 2790 nM, the “increase in paw size” value (carrageenan-treated mice; 24 h after carrageenan injection (control mice 30%)) is reported as 8% and the “increase in paw size” value (carrageenan-treated mice; within the first hour after carrageenan injection) is reported as 10%. For the same compound, the “TNFα message in unstimulated cells” value ([1]; EOC20 cells without TNFα stimulation, 0.5 μM and 0.05 μM compound) was “reduction of TNFα message” and the “TNFα amplicon in TNFα-stimulated cells” value ([1]; EOC20 cells, TNFα 20 ng/ml, 0.5 μM and 0.05 μM compound 1 hour prior, harvested 48 h) was “dose-dependent reduction”.
